Laboratory results: patent publication US11820766B2, “Monoacylglycerol lipase modulators” (Janssen Pharmaceutica NV, priority 2018, dated 2023)
pIC50: −log10 of the molar value.

biological target: T1, human MGL from HeLa cells (Homo sapiens, UniProt Q99685); assay: In vitro MGL activity assay: [glycerol-1,3-3H]-oleyl glycerol cleavage by MGL from HeLa cells; type: biochemical; details: 300 nM [Glycerol-1,3-3H]-oleyl glycerol, one hour
T1 construct: combining endogenously expressed MGL from HeLa cells with test compounds; endogenous in cells; host or cells: HeLa cells / cell homogenates
T1 sequence (Q99685 1-303): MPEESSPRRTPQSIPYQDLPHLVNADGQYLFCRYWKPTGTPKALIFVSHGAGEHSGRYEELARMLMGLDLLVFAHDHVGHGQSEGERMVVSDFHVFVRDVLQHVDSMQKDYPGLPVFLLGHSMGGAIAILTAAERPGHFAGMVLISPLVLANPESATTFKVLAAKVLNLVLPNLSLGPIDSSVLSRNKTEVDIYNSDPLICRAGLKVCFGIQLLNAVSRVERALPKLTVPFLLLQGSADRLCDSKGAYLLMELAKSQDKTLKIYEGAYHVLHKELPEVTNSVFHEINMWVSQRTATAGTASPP
Excerpt: MGL is the predominant hydrolase in HeLa cells/cell homogenates.

SMILES	pIC50
COc1c(C(=O)N2CCc3c(nn(C)c3-c3cc(F)c(F)c(F)c3)[C@@H]2C)ccnc1C [Example 599, [(7S)-2,7-Dimethyl-3-(3,4,5-trifluorophenyl)-5,7-dihydro-4H-pyrazolo[3,4-c]pyridin-6-yl]-(3-methoxy-2-methyl-4-pyridyl)methanone]	7.15
Cc1cn(C)c2ncnc(C(=O)N3CCc4c(nn(C)c4-c4cc(F)c(F)c(F)c4)[C@@H]3C)c12 [Example 467, (5,7-Dimethylpyrrolo[2,3-d]pyrimidin-4-yl)-[(7S)-2,7-dimethyl-3-(3,4,5-trifluorophenyl)-5,7-dihydro-4H-pyrazolo[3,4-c]pyridin-6-yl] methanone]	7.44
Cc1nc2c(C)cccn2c1C(=O)N1CCc2c(nn(C)c2-c2cc(F)c(F)c(F)c2)[C@@H]1C [Example 403, (2,8-Dimethylimidazo[1,2-a]pyridin-3-yl)-[(7S)-2,7-dimethyl-3-(3,4,5-trifluorophenyl)-5,7-dihydro-4H-pyrazolo[3,4-c]pyridin-6-yl]methanone]	7.36
[2H]c1cnc2cc(C(=O)N3CCc4c(nn(C)c4-c4cc(F)c(F)c(F)c4)[C@@H]3C)ccc2n1 [Example 483, (2-Deuterioquinoxalin-6-yl)-[(7S)-2,7-dimethyl-3-(3,4,5-trifluorophenyl)-5,7-dihydro-4H-pyrazolo[3,4-c]pyridin-6-yl]methanone]	7.99
C[C@H]1c2nn(C)c(-c3cc(F)c(F)c(F)c3)c2CCN1C(=O)c1cnc2c(c1)OCCN2C [Example 572, [(7S)-2,7-Dimethyl-3-(3,4,5-trifluorophenyl)-5,7-dihydro-4H-pyrazolo[3,4-c]pyridin-6-yl]-(4-methyl-2,3-dihydropyrido[3,2-b][1,4]oxazin-7-yl)methanone]	7.28
Cc1ccn2ncc(C(=O)N3CCc4c(nn(C)c4-c4cc(F)c(F)c(F)c4)[C@@H]3C)c2c1 [Example 383, [(7S)-2,7-Dimethyl-3-(3,4,5-trifluorophenyl)-5,7-dihydro-4H-pyrazolo[3,4-c]pyridin-6-yl]-(5-methylpyrazolo[1,5-a]pyridin-3-yl)methanone]	8.19

same assay, conditions: 300 nM [Glycerol-1,3-3H]-oleyl glycerol, one hour incubation

SMILES	pIC50
C[C@H]1c2nn(C)c(-c3cc(F)c(F)c(F)c3)c2CCN1C(=O)c1cc(F)cc(-n2cnnc2)c1 [Example 292, [(7S)-2,7-Dimethyl-3-(3,4,5-trifluorophenyl)-5,7-dihydro-4H-pyrazolo[3,4-c]pyridin-6-yl]-[3-fluoro-5-(1,2,4-triazol-4-yl)phenyl]methanone]	6.61
COCc1cncc(C(=O)N2CCc3c(nn(C)c3-c3cc(F)c(F)c(F)c3)[C@@H]2C)c1 [Example 304, [(7S)-2,7-Dimethyl-3-(3,4,5-trifluorophenyl)-5,7-dihydro-4H-pyrazolo[3,4-c]pyridin-6-yl]-[5-(methoxymethyl)-3-pyridyl]methanone]	6.24
Cc1nc2sccn2c1C(=O)N1CCc2c(nn(C)c2-c2ccccc2)C1 [Example 32, (2-Methyl-3-phenyl-2,4,5,7-tetrahydro-6H-pyrazolo[3,4-c]pyridin-6-yl)(6-methylimidazo[2,1-b]thiazol-5-yl)methanone]	5.96
Cn1nc2c(c1-c1ccccc1)CCN(C(=O)c1cccc3ccccc13)C2 [Example 1, (2-Methyl-3-phenyl-2,4,5,7-tetrahydro-6H-pyrazolo[3,4-c]pyridin-6-yl)(naphthalen-1-yl)methanone]	7.89
Cn1nc2c(c1-c1cc(F)cc(F)c1)CCN(C(=O)c1ccc3ncccc3c1)C2 [Example 101, (3-(3,5-Difluorophenyl)-2-methyl-2,4,5,7-tetrahydro-6H-pyrazolo[3,4-c]pyridin-6-yl)(quinolin-6-yl)methanone]	7.28
Cc1cc(C(=O)N2CCc3c(nn(C)c3-c3cc(F)c(F)c(F)c3)[C@@H]2C)c2ccccc2n1 [Example 239, (S)-(2,7-Dimethyl-3-(3,4,5-trifluorophenyl)-2,4,5,7-tetrahydro-6H-pyrazolo[3,4-c]pyridin-6-yl)(2-methylquinolin-4-yl)methanone]	8.43
Cn1nc2c(c1-c1ccccc1)CCN(C(=O)c1nc3ccccc3s1)C2 [Example 62, Benzo[d]thiazol-2-yl(2-methyl-3-phenyl-2,4,5,7-tetrahydro-6H-pyrazolo[3,4-c]pyridin-6-yl)methanone]	5.79
Cn1nc2c(c1-c1ccccc1)CCN(C(=O)c1ccc3cncn3c1)C2 [Example 77, Imidazo[1,5-a]pyridin-6-yl(2-methyl-3-phenyl-2,4,5,7-tetrahydro-6H-pyrazolo[3,4-c]pyridin-6-yl)methanone]	5.29
C[C@H]1c2nn(C)c(-c3cc(F)c(F)c(F)c3)c2CCN1C(=O)c1nccc2ccccc12 [Example 237, (S)-(2,7-Dimethyl-3-(3,4,5-trifluorophenyl)-2,4,5,7-tetrahydro-6H-pyrazolo[3,4-c]pyridin-6-yl)(isoquinolin-1-yl)methanone]	8.72
C[C@H]1c2nn(C)c(-c3cc(F)cc(F)c3)c2CCN1C(=O)c1cccc2c1ccn2CCF [Example 150, (S)-(3-(3,5-Difluorophenyl)-2,7-dimethyl-2,4,5,7-tetrahydro-6H-pyrazolo[3,4-c]pyridin-6-yl)(1-(2-fluoroethyl)-1H-indol-4-yl)methanone]	9.17
C[C@H]1c2nn(C)c(-c3cc(F)c(F)c(F)c3)c2CCN1C(=O)c1ccc(-c2cn[nH]c2)cc1 [Example 268, [(7S)-2,7-Dimethyl-3-(3,4,5-trifluorophenyl)-5,7-dihydro-4H-pyrazolo[3,4-c]pyridin-6-yl]-[4-(1H-pyrazol-4-yl)phenyl]methanone]	7.62
Cn1nc2c(c1-c1ccccc1)CCN(C(=O)c1cnc3ccccc3c1)C2 [Example 95, (2-Methyl-3-phenyl-2,4,5,7-tetrahydro-6H-pyrazolo[3,4-c]pyridin-6-yl)(quinolin-3-yl)methanone]	6.01
C[C@@H]1c2nn(C)c(-c3cc(F)cc(F)c3)c2CCN1C(=O)c1cnc2ccoc2c1 [Example 154, (R)-(3-(3,5-Difluorophenyl)-2,7-dimethyl-2,4,5,7-tetrahydro-6H-pyrazolo[3,4-c]pyridin-6-yl)(furo[3,2-b]pyridin-6-yl)methanone]	5.18
C[C@H]1c2nn(C)c(-c3cccc(Cl)c3)c2CCN1C(=O)c1cc(Br)c2nccnc2c1 [Example 135, (S)-(8-Bromoquinoxalin-6-yl)(3-(3-chlorophenyl)-2,7-dimethyl-2,4,5,7-tetrahydro-6H-pyrazolo[3,4-c]pyridin-6-yl)methanone]	7.97
C[C@H]1c2nn(C)c(-c3cc(F)c(F)c(F)c3)c2CCN1C(=O)c1ccc(-c2ccn[nH]2)cc1 [Example 269, [(7S)-2,7-Dimethyl-3-(3,4,5-trifluorophenyl)-5,7-dihydro-4H-pyrazolo[3,4-c]pyridin-6-yl]-[4-(1H-pyrazol-5-yl)phenyl]methanone]	8.05
Cc1nc2ccc(C(=O)N3CCc4c(nn(C)c4-c4cc(Cl)cc(Cl)c4)[C@@H]3C)cc2o1 [Example 172, (S)-(3-(3,5-Dichlorophenyl)-2,7-dimethyl-2,4,5,7-tetrahydro-6H-pyrazolo[3,4-c]pyridin-6-yl)(2-methylbenzo[d]oxazol-6-yl)methanone]	8.31
C[C@H]1c2nn(C)c(-c3cc(F)c(F)c(F)c3)c2CCN1C(=O)c1c(F)cccc1-n1nccn1 [Example 288, [(7S)-2,7-Dimethyl-3-(3,4,5-trifluorophenyl)-5,7-dihydro-4H-pyrazolo[3,4-c]pyridin-6-yl]-[2-fluoro-6-(triazol-2-yl)phenyl]methanone]	7.22
